Assay results reported in patent US4436934A, “Bicyclic prostaglandin analogs and method of synthesis” (Iowa State University Research Foundation, Inc., priority 1981, dated 1984).

Experiments:
[1] = system: platelet thrombus (laser micro-injury of small blood vessel); conditions: cited from earlier work; for inhibition of thrombosis (in words): general statement on potent inhibitors of platelet aggregation
[2] = system: platelet thrombus (laser micro-injury of small blood vessel); assay: biolaser model of experimental thrombosis (rabbit ear chamber); format: in vivo; conditions: combined with anagrelide at a lower than threshold level
Text: These compounds were studied in vivo in an animal model for experimental thrombosis. The use of this model is described in detail in the reprint, Use of the Biolaser in the Evaluation of Anti-Thrombotic Agents, J. S. Fleming et al. "Platelets and Thrombosis", eds. S. Sherry and A. Scriabrine, University Park Press, 1974, Baltimore, which is incorporated herein by reference.
In brief, a micro-injury is created by a laser beam focused through a microscope onto the endothelium surface of a small blood vessel in a surgically implanted ear chamber of a rabbit. The injury induces the rapid formation of a platelet thrombis which can be measured. […] Prostacyclin is active in the biolaser model when infused intraveneously. The results of these tests preliminarily indicate that there is a super additive interaction between anagrelide and the compounds of this invention. […] To date, no other compounds have undergone significant in vivo analysis in the rabbit ear test.

SMILES	inhibition of thrombosis (in words) [1]	activity in the biolaser model (in words) ([1]; infused intravenously)	reduction in thrombosis, combination with anagrelide (in words) [2]
CCCCC[C@H](O)/C=C/[C@@H]1[C@H]2C/C(=C/CCCC(=O)O)O[C@H]2C[C@H]1O [prostacyclin]	significant inhibition of this kind of thrombosis	active	–
O=C1CN2Cc3c(ccc(Cl)c3Cl)N=C2N1 [anagrelide]	significant inhibition of this kind of thrombosis	–	–
CCCCCC(O)C#CC1C2CCC(C2)C1C/C=C/CCCC(=O)OC (stereo not shown) [Example 2]	–	–	substantial reduction in thrombosis
